Experiment [1] has as its target T1, CB2 receptor (Mus musculus, UniProt P47936).
T1 construct: membranes were prepared from frozen mouse spleen; from tissue; host or cells: mouse spleen
The experiment is described as follows: CB2 receptor binding, mouse spleen membranes, same manner as the CB1 binding assay. Conditions: for Ki: [3H] CP-55,940. How it is done:
Some of the inventive analogs were tested for CB2 receptor binding affinity and for CB1 receptor affinity (to determine selectivity). […] The lower the Ki value the higher the binding affinity.
(§1) The treated membranes were subsequently used in the binding assay described below. Approximately 30 μg of membranes were incubated in silanized 96-well microtiter plate with TME containing 0.1% essentially fatty acid-free bovine serum albumin (BSA), 0.8 nM [^3H] […] Radioactivity was detected using MicroScint 20 scintillation cocktail added directly to the dried filterplates, and the filterplates were counted using a Packard Instruments Top-Count. […] Data collected from three independent experiments performed with duplicate determinations was normalized between 100% and 0% specific binding for [^3H] […] The normalized data was analyzed using a 4-parameter nonlinear logistic equation to yield IC50 values.
Silanized centrifuge tubes were used throughout to minimize receptor loss due to adsorption. The CB2 binding assay was conducted in the same manner as for the CB1 binding assay. The binding affinities (Ki) were also expressed in nanomoles (nM).

Experiment [2] has as its target T2, CB1 cannabinoid receptor (Rattus norvegicus, UniProt P20272).
T2 construct: membranes were prepared from rat forebrain membranes; from tissue; host or cells: rat forebrain
The experiment is described as follows: CB1 receptor binding, rat forebrain membranes, [3H] CP-55,940 displacement. To be noted: for Ki: 0.8 nM [3H] CP-55,940; for selectivity CB1: ratio of CB2 Ki to CB1 Ki. How it is done: Some of the inventive analogs were tested for CB2 receptor binding affinity and for CB1 receptor affinity (to determine selectivity). […] The lower the Ki value the higher the binding affinity. […]
Membranes, previously frozen at −80° C., were thawed on ice. To the stirred suspension was added three volumes of TME (25 mM Tris-HCl buffer, 5 mM MgCl2 and 1 mM EDTA) at a pH 7.4. The suspension was incubated at 4° C. for 30 min. At the end of the incubation, the membranes were pelleted and washed three times with TME.
as §1

[3] abbreviates: mouse spleen membranes, read-out: affinities Ki CB2.
The mark [4] stands for this setting: rat forebrain membranes, read-out: affinities Ki CB1.
[5] abbreviates: affinities Ki CB2, mouse spleen membranes.
Where [6] appears, read: affinities Ki CB1, rat forebrain membranes.

Structures are written as SMILES. Several values for one entry are separate records, joined by “and”; a condition that tells them apart may be missing. Identical values can stand only once. Like-named read-outs stand apart in the source and are kept apart here.

T2 sequence (P20272 whole entry): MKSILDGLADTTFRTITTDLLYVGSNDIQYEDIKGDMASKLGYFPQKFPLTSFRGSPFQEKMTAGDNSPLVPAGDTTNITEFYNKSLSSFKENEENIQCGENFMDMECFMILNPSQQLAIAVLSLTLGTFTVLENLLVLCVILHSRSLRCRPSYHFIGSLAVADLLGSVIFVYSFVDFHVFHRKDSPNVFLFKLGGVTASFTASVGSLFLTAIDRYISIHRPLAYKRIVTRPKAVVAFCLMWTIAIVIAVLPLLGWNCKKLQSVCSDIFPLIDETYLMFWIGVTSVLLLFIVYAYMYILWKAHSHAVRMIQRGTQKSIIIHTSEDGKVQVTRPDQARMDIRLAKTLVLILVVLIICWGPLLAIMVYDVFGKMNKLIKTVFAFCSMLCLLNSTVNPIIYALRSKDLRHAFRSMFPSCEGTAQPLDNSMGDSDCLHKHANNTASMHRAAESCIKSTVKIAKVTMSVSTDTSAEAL
T1 sequence (P47936 whole entry): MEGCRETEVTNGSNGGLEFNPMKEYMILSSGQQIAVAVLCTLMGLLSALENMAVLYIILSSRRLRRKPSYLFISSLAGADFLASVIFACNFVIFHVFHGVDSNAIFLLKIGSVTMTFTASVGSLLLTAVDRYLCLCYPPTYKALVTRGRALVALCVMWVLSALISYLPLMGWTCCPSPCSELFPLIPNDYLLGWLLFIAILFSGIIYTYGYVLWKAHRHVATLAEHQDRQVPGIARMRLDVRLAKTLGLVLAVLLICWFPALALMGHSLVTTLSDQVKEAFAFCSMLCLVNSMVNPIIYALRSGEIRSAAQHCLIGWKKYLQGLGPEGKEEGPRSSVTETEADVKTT

A word on the Ki: it is a dissociation constant, usually derived from enzyme kinetics or from competition with a known ligand. As for `Cc1c(C(=O)N(C)C2CCCCC2)nn(-c2ccc(Cl)cc2Cl)c1-c1ccc(-c2nnn(C)n2)cc1` [Compound 2-15], the inhibition constant (Ki) was 551 nM in experiment [1] (setting [3]) and 105 nM in experiment [2] (setting [4]). For the same molecule, in experiment [2], the “selectivity CB1” value came out at 5.2.

In the case of `CN(C(=O)Nc1nn(-c2ccc(Cl)cc2Cl)c(-c2ccc(Br)cc2)c1CO)C1CCCCC1` [Compound 2-21], the inhibition constant Ki amounted to 4470 nM in experiment [1] (setting [3]) and 296 nM in experiment [2] (setting [4]). In addition, the “selectivity CB1” value in experiment [2] was 15.1.

For `CCCCCC=Cc1nn(-c2ccc(Cl)cc2Cl)c(-c2ccc(Br)cc2)c1C` [Compound 1-26], the inhibition constant (Ki) came to 52900 nM in experiment [1] (setting [5]) and 7680 nM in experiment [2] (setting [4]). The “selectivity CB1” value in experiment [2] was found to be 6.9.

Regarding `Cn1nnnc1-c1ccc(-c2c(CO)c(C(=O)NN3CCCCC3)nn2-c2ccc(Cl)cc2Cl)cc1` [Compound 2-5], the Ki in experiment [1] (setting [3]) came out at 2130 nM; in experiment [2] (setting [4]), 203 nM. The “selectivity CB1” value in experiment [2] came out at 10.5.

Take `COCOCc1c(C(=O)NC2CCCCC2)nn(-c2ccc(Cl)cc2Cl)c1-c1ccc(Br)cc1` [Compound 1-13]: the inhibition constant Ki turned out to be 54 nM in experiment [1] (setting [3]) and 15 nM in experiment [2] (setting [4]). In experiment [2], the “selectivity CB1” value amounted to 3.6.

With `COCc1c(C(=O)NN2CCCCC2)nn(-c2ccc(Cl)cc2Cl)c1-c1ccc(Br)cc1` [Compound 1-8], the inhibition constant Ki came out at 561 nM in experiment [1] (setting [5]) and 19 nM in experiment [2] (setting [6]). Moreover, in experiment [2], the “selectivity CB1” value amounted to 31.

On to `CCOCc1c(C(=O)NC23CC4CC(CC(C4)C2)C3)nn(-c2ccc(Cl)cc2Cl)c1-c1ccc(Br)cc1` [Compound 1-11], for which the figures for the Ki in experiment [1] (setting [3]) and in experiment [2] (setting [4]) were 47500 nM and 105 nM, respectively. Further, in experiment [2], the “selectivity CB1” value amounted to 452.

Regarding `O=C(NN1CCCCC1)c1nn(-c2ccc(Cl)cc2Cl)c(-c2ccc(Br)cc2)c1CO` [Compound 3-3], the inhibition constant Ki in experiment [1] (setting [5]) was 490 nM; in experiment [2] (setting [6]), 46 nM. In experiment [2], the “selectivity CB1” value amounted to 10.6.

Turning to `Cc1c(C(=O)NC2CC(C)C3CC2C3(C)C)nn(CCCCCCl)c1-c1ccccc1` (centres unmarked) [Compound 4-7], the Ki was 2.76 nM and 2.8 nM in experiment [1] (setting [5]); 4.73 nM and 4.7 nM in experiment [2] (setting [6]). Besides, in experiment [1] (ratio of CB1 Ki to CB2 Ki), the “selectivity CB2” value is on record as 1.7.

Take `Cc1c(C(=O)NN2CCCCC2)nn(-c2ccc(Cl)cc2Cl)c1-c1ccc(C(N)=S)cc1` [Compound 3-25]: the Ki was 127 nM in experiment [1] (setting [3]) and 86 nM in experiment [2] (setting [4]). The “selectivity CB1” value in experiment [2] is listed as 1.5.

`COCc1c(C(=O)N(C)C2CCCCC2)nn(-c2ccc(Cl)cc2Cl)c1-c1ccc(Br)cc1` [Compound 1-29]: the inhibitory constant (Ki) was determined as 2040 nM in experiment [1] (setting [5]) and 273 nM in experiment [2] (setting [6]). Moreover, the “selectivity CB1” value in experiment [2] is given as 7.5.

On to `CN(C(=O)c1nn(-c2ccc(Cl)cc2Cl)c(-c2ccc(I)cc2)c1CO)C1CCCCC1` [Compound 3-2], for which the Ki in experiment [1] (setting [5]) amounted to 528 nM; in experiment [2] (setting [6]), 18 nM. Also, in experiment [2], the “selectivity CB1” value is recorded as 29.3.

Regarding `O=C(NC1CCCCC1)c1nn(-c2ccc(Cl)cc2Cl)c(-c2ccc(Br)cc2)c1CO` [Compound 3-18], the inhibitory constant (Ki) was 2120 nM in experiment [1] (setting [3]) and 6 nM in experiment [2] (setting [4]). In experiment [2], the “selectivity CB1” value is recorded as 353.3.

In the case of `Cc1c(C(=O)NC2C3CC4CC(C3)CC2C4)nn(CCCCCCl)c1-c1ccccc1` (centres unmarked) [Compound 4-4], the Ki in experiment [1] (setting [5]) was 8.46 nM and 8.5 nM; in experiment [2] (setting [6]), 7.64 nM and 7.6 nM.

For `O=C(Nc1nn(-c2ccc(Cl)cc2Cl)c(-c2ccc(Br)cc2)c1CO)NC1CCCCC1` [Compound 2-19], the Ki in experiment [1] (setting [3]) was determined as 4920 nM; in experiment [2] (setting [4]), 9 nM. In addition, the “selectivity CB1” value in experiment [2] was determined as 546.7.

On to `CCOCc1c(C(=O)NC2CCCCC2)nn(-c2ccc(Cl)cc2Cl)c1-c1ccc(Br)cc1` [Compound 1-10], for which the Ki came out at 842 nM in experiment [1] (setting [3]) and 54 nM in experiment [2] (setting [4]). Also, the “selectivity CB1” value in experiment [2] was 16.

Consider `Cc1c(C(=O)NN2CCCCC2)nn(-c2ccc(Cl)cc2Cl)c1-c1ccc(C(=O)O)cc1` [Compound 3-24], for which the inhibition constant Ki in experiment [1] (setting [3]) came to 934 nM; in experiment [2] (setting [4]), 738 nM. Also, in experiment [2], the “selectivity CB1” value is on record as 1.3.

For `O=C(Nc1nn(-c2ccc(Cl)cc2Cl)c(-c2ccc(Br)cc2)c1CBr)NC1CCCCC1` [Compound 3-7], the inhibition constant (Ki) in experiment [1] (setting [3]) amounted to 136 nM; in experiment [2] (setting [4]), 38 nM. Further, the “selectivity CB1” value in experiment [2] was 3.6.

The values are drawn from patent US8084467B2, “Pyrazole derivatives as cannabinoid receptor antagonists” (University of Connecticut, priority 2004, dated 2011).
